Source: ChEMBL document CHEMBL4619777, “A New Class of Dengue and West Nile Virus Protease Inhibitors with Submicromolar Activity in Reporter Gene DENV-2 Protease and Viral Replication Assays” (J Med Chem, 2020)
Activity calls are given as the source filed them.

What was measured:
[1] = target: Genome polyprotein (dengue virus type 2) (UniProt P29990); assay: Inhibition of Dengue virus serotype 2 NS2B-NS3 protease expressed in Escherichia coli BL21 lambda (DE3) cells at 50 uM using Abz-Nle-Lys-Arg-Arg-Ser-3-(NO2)Tyr as substrate preincubated for 15 mins followed by substrate addition and measured for 15 mins by FRET assay relative to control
Trypsin [2] = target: T1, Trypsin (Homo sapiens, UniProt P07477+P07478+P35030); assay: Inhibition of trypsin (unknown origin) using Boc-Val-Pro-Arg-AMC as substrate preincubated for 15 mins followed by substrate addition and measured for 15 mins by fluorimetric assay; assay type: protein assay
[3] = target: Genome polyprotein (West Nile virus) (UniProt P06935); assay: Inhibition of West Nile virus NS2B-NS3 protease expressed in Escherichia coli BL21 lambda (DE3) cells at 50 uM using Abz-Gly-Leu-Lys-Arg-Gly-Gly-3-(NO2)Tyr as substrate preincubated for 15 mins followed by substrate addition measured for 15 mins by fluorimetric analysis relative to control
Genome polyprotein [4] = target: T2, Genome polyprotein (West Nile virus, UniProt P06935); assay: Inhibition of West Nile virus NS2B-NS3 protease expressed in Escherichia coli BL21 lambda (DE3) cells using Abz-Gly-Leu-Lys-Arg-Gly-Gly-3-(NO2)Tyr as substrate preincubated for 15 mins followed by substrate addition measured for 15 mins by fluorimetric analysis
Prothrombin = Prothrombin (Homo sapiens, UniProt P00734); assay: Inhibition of thrombin (unknown origin) at 25 uM using Boc-Val-Pro-Arg-AMC as substrate preincubated for 15 mins followed by substrate addition and measured for 15 mins by fluorimetric assay; conditions: 0.25 h
Genome polyprotein [5] = target: T3, Genome polyprotein (dengue virus type 2, UniProt P29990); assay: Inhibition of Dengue virus serotype 2 NS2B-NS3 protease transfected in human HeLa cells measured after 24 hrs by Renilla-luciferase reporter gene assay; assay type: cell-based
Trypsin [6] = target: T1, Trypsin; assay: Inhibition of trypsin (unknown origin) at 50 uM using Boc-Val-Pro-Arg-AMC as substrate preincubated for 15 mins followed by substrate addition and measured for 15 mins by fluorimetric assay relative to control; assay type: protein assay; conditions: for inhibition at 0.25 h, 50 µM: trypsin (unknown origin), probe Boc-Val-Pro-Arg-AMC; for inhibition (INH): 0.25 h, 50 µM
Genome polyprotein [7] = target: T3, Genome polyprotein; assay: Inhibition of Dengue virus serotype 2 NS2B-NS3 protease expressed in Escherichia coli BL21 lambda (DE3) cells using Abz-Nle-Lys-Arg-Arg-Ser-3-(NO2)Tyr as substrate preincubated for 15 mins followed by substrate addition and measured for 15 mins by FRET assay
[8] = target: Genome polyprotein (dengue virus type 2) (UniProt P29990); assay: Inhibition of Dengue virus serotype 2 NS2B-NS3 protease transfected in human HeLa cells at 12.5 uM measured after 24 hrs by Renilla-luciferase reporter gene assay relative to control; assay type: cell-based
[9] = Cytotoxicity against human HeLa cells assessed as reduction in cell viability measured after 24 hrs by celltiter-blue assay; assay type: cell-based
[10] = Permeability of the compound at 200 uM measured after 5 hrs at pH 7.4 by PAMPA; assay type: ADME; conditions: read-out: permeability
dengue virus type 2 [11] = assay: Antiviral activity against DENV2 infected in human HuH7 cells assessed as reduction in virus titer at 12.5 uM measured after 48 hrs relative to control; assay type: functional; conditions: Huh-7, 48 h
[12] = Permeability of the compound assessed as drug level in acceptor plate at 200 uM measured after 5 hrs at pH 7.4 by PAMPA; assay type: ADME; conditions: pH 7.4, 5 h
Huh-7 = assay: Cytotoxicity against human HuH7 cells assessed as reduction in cell viability at 12 uM measured after 48 hrs by celltiter-blue assay; assay type: cell-based; conditions: huh-7, 48 h
[13] = Permeability of the compound assessed as mass retention at 200 uM measured after 5 hrs at pH 7.4 by PAMPA; assay type: ADME; conditions: pH 7.4, 5 h
[14] = Permeability of the compound assessed as drug level in donor plate at 200 uM measured after 5 hrs at pH 7.4 by PAMPA; assay type: ADME; conditions: pH 7.4, 5 h
[15] = target: Genome polyprotein (West Nile virus) (UniProt P06935); assay: Inhibition of West Nile virus NS2B-NS3 protease expressed in Escherichia coli BL21 lambda (DE3) cells at 50 uM using Abz-Gly-Leu-Lys-Arg-Gly-Gly-3-(NO2)Tyr as substrate preincubated for 15 mins followed by substrate addition measured after 15 mins by HPLC analysis relative to control
[16] = target: Genome polyprotein (dengue virus type 2) (UniProt P29990); assay: Inhibition of Dengue virus serotype 2 NS2B-NS3 protease expressed in Escherichia coli BL21 lambda (DE3) cells at 50 uM using Abz-Nle-Lys-Arg-Arg-Ser-3-(NO2)Tyr as substrate preincubated for 15 mins followed by substrate addition and measured after 15 mins by HPLC analysis relative to control
[17] = target: Genome polyprotein (dengue virus type 2) (UniProt P29990); assay: Inhibition of Dengue virus serotype 2 NS2B-NS3 protease expressed in Escherichia coli BL21 lambda (DE3) cells at 50 uM measured after 1 hr in presence of DENV protease inhibitor aprotinin by tryptophan fluorescence quenching method
[18] = target: Genome polyprotein (dengue virus type 2) (UniProt P29990); assay: Inhibition of Dengue virus serotype 2 NS2B-NS3 protease expressed in Escherichia coli BL21 lambda (DE3) cells measured after 1 hr by tryptophan fluorescence quenching method
Genome polyprotein [19] = target: T2, Genome polyprotein; assay: Inhibition of West Nile virus NS2B-NS3 protease expressed in Escherichia coli BL21 lambda (DE3) cells using Abz-Gly-Leu-Lys-Arg-Gly-Gly-3-(NO2)Tyr as substrate preincubated for 15 mins followed by substrate addition measured after 15 mins by HPLC analysis
Genome polyprotein [20] = target: T3, Genome polyprotein; assay: Inhibition of Dengue virus serotype 2 NS2B-NS3 protease expressed in Escherichia coli BL21 lambda (DE3) cells using Abz-Nle-Lys-Arg-Arg-Ser-3-(NO2)Tyr as substrate preincubated for 15 mins followed by substrate addition and measured after 15 mins by HPLC analysis
[21] = target: Genome polyprotein (West Nile virus) (UniProt P06935); assay: Competitive inhibition of West Nile virus NS2B-NS3 protease expressed in Escherichia coli BL21 lambda (DE3) cells using varying levels of Abz-Gly-Leu-Lys-Arg-Gly-Gly-3-(NO2)Tyr as substrate by Cheng-Prusoff plot analysis
[22] = target: Genome polyprotein (dengue virus type 2) (UniProt P29990); assay: Competitive inhibition of Dengue virus serotype 2 NS2B-NS3 protease expressed in Escherichia coli BL21 lambda (DE3) cells using varying levels of Abz-Nle-Lys-Arg-Arg-Ser-3-(NO2)Tyr as substrate by Cheng-Prusoff plot analysis
dengue virus type 2 [23] = assay: Antiviral activity against DENV2 infected in human HuH7 cells assessed as reduction in virus titer measured after 48 hrs; assay type: functional, organism-based; conditions: Huh-7, 48 h
dengue virus type 2 [24] = assay: Antiviral activity against DENV2 infected in human HuH7 cells assessed as reduction in virus titer at 10 uM measured after 48 hrs relative to control; assay type: functional; conditions: Huh-7, 48 h

Genome polyprotein (West Nile virus), sequence (P06935 whole entry): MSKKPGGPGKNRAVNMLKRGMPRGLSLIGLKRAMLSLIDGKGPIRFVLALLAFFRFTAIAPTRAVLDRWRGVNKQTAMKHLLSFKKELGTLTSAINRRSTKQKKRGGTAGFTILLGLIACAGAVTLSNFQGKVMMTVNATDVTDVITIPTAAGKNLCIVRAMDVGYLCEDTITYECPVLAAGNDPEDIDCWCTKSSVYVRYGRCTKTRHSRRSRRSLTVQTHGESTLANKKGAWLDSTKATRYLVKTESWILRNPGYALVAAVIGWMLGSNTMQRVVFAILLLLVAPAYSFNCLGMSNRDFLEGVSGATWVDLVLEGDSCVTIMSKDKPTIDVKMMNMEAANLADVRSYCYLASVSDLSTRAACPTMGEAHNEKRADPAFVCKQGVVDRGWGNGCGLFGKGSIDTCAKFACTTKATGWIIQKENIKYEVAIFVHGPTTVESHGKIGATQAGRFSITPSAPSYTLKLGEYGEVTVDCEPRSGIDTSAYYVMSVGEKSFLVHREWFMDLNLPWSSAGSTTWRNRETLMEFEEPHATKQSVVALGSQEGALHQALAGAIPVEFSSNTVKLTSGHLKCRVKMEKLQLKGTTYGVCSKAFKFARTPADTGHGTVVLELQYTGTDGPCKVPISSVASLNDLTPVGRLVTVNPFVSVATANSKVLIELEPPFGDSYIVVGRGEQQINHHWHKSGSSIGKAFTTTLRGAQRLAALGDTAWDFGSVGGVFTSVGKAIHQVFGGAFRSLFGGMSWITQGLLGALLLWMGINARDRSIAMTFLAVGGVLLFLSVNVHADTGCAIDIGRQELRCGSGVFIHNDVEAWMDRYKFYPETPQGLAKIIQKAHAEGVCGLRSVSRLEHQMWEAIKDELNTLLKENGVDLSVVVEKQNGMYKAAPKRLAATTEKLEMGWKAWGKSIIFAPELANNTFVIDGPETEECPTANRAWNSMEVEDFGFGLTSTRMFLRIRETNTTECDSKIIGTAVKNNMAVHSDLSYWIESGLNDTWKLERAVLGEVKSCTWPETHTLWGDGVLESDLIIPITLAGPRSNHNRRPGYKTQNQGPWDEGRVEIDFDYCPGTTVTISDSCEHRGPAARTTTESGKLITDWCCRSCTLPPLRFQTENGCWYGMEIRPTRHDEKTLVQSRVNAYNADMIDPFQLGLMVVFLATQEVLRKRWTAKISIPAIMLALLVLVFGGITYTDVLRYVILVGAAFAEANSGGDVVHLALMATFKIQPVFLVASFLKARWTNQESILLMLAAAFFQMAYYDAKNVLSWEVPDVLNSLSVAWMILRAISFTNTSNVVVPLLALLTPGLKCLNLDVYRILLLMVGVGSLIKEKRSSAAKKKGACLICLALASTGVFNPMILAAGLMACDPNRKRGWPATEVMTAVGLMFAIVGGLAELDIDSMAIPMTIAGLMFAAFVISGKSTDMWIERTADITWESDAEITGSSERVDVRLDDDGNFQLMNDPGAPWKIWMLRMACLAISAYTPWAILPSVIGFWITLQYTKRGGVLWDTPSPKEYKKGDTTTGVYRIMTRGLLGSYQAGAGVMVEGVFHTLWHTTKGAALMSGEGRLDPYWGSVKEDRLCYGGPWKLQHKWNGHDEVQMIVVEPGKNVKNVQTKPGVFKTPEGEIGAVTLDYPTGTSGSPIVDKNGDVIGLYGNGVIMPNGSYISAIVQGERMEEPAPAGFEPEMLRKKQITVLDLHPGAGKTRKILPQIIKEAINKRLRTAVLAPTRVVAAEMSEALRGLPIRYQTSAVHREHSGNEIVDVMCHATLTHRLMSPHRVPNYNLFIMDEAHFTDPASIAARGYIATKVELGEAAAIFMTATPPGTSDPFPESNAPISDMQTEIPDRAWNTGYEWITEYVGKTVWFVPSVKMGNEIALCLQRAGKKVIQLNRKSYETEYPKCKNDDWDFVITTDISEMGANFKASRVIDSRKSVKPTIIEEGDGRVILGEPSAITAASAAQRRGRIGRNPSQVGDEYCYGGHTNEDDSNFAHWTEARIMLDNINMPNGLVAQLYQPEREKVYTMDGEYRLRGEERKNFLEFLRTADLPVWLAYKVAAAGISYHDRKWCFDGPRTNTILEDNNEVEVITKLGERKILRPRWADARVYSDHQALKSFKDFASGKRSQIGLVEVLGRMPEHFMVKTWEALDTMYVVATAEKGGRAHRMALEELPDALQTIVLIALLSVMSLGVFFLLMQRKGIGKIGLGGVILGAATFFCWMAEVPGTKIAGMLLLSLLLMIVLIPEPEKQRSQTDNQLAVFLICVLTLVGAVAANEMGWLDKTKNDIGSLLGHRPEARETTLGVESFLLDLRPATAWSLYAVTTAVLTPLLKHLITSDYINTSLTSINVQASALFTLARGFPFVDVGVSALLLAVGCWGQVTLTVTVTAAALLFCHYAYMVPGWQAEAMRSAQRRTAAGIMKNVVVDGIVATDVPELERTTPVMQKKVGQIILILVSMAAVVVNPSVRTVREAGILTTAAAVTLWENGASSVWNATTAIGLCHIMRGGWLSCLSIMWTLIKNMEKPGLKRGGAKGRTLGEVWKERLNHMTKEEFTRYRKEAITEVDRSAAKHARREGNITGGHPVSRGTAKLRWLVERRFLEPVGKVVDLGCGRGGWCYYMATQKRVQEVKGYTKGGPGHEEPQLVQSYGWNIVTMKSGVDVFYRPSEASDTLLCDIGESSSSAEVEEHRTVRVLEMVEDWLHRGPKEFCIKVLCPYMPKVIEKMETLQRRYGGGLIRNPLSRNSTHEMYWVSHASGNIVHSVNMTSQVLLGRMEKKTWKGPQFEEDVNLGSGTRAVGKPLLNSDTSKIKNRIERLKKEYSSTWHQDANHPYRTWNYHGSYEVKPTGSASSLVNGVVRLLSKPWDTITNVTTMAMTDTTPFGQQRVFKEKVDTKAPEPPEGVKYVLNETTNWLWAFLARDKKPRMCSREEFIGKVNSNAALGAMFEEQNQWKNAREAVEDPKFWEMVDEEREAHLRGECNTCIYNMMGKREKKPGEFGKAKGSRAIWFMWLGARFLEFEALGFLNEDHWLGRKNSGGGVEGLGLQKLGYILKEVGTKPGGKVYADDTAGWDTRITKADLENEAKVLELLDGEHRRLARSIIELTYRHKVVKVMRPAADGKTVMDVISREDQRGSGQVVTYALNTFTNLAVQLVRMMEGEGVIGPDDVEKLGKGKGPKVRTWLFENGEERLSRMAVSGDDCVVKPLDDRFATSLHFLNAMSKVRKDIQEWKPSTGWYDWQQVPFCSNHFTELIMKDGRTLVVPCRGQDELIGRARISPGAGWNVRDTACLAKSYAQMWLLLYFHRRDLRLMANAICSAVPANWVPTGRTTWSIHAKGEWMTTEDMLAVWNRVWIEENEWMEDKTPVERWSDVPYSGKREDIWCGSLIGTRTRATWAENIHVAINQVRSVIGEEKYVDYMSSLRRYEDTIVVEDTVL
T2 sequence (P06935 1371-1501 limits assumed): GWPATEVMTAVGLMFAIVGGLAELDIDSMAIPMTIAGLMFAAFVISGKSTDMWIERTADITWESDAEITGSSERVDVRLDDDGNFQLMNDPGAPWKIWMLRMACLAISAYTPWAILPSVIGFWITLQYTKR
T2 sequence (P06935 1502-2120 limits assumed): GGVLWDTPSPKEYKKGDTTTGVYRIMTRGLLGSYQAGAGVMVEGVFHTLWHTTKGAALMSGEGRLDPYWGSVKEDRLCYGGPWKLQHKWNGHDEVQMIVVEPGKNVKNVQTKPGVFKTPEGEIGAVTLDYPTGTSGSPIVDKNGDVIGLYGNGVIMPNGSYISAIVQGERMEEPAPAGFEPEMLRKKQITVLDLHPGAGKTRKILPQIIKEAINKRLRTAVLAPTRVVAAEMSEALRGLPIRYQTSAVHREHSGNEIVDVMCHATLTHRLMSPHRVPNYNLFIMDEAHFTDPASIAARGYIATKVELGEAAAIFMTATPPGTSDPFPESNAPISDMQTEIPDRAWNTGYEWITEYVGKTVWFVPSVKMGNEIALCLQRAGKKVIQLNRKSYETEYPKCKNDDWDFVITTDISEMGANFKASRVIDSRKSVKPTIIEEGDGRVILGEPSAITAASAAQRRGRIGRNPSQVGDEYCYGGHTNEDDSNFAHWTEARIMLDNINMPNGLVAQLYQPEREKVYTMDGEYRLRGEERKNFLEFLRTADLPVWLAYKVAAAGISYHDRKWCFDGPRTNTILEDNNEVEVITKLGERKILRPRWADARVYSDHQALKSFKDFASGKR

SMILES | inhibition [1] [%] | inhibition [3] [%] | IC50 (Genome polyprotein [4]) [µM] | inhibition (INH) (Prothrombin) | EC50 (Genome polyprotein [5]) [µM] | IC50 (Genome polyprotein [7]) [µM] | inhibition [8] [%] | CC50 at 24 h [9] [µM] | Papp at 5 h, 200 µM [10] [×10⁻⁶ cm/s] | inhibition at 12.5 µM (dengue virus type 2 [11]) [%] | Drug uptake [12] [µM] | Activity (Huh-7) | R% [13] [%] | Drug uptake [14] [µM] | inhibition (INH) (Trypsin [6]) | further results
N=C(N)Nc1ccc(CNC(=O)[C@@H](NC(=O)c2ccc(-c3ccccc3)cc2)c2ccc(OCc3ccccc3)cc2)cc1.O=C(O)C(F)(F)F | 101 | 99.4 | 7.4 | Not Active | 7.6 | 1.8 | 67 | > 50 |  |  |  |  |  |  |  | IC50 (Trypsin [2]): 31 µM; inhibition at 0.25 h, 50 µM (Trypsin [6]): > 50%
CCCCCCC(=O)N[C@H](C(=O)NCc1ccc(NC(=N)N)cc1)c1ccc(OCc2ccccc2)cc1.O=C(O)C(F)(F)F | 97.2 | 101 | 17 | Not Active | 0.52 | 6.8 | 71 | > 50 | 0.4 | 81 | 1.9 | Non-Toxic | 15.7 | 167.3 | Not Active | 
N=C(N)Nc1ccc(CNC(=O)[C@@H](NC(=O)c2ccc(-c3cccs3)s2)c2ccc(OCc3ccccc3)cc2)cc1.O=C(O)C(F)(F)F |  |  |  | Not Active | 9.3 |  | 52.6 | > 50 |  |  |  |  |  |  | Not Active | inhibition [15]: 93.6%; inhibition [16]: 99.7%; inhibition [17]: inactive; inhibition [18]: Dose-dependent effect; IC50 (Genome polyprotein [19]): 6.5 µM; IC50 (Genome polyprotein [20]): 6.3 µM
N=C(N)Nc1ccc(CNC(=O)[C@@H](NC(=O)Cc2ccc(-c3ccccc3)cc2)c2ccc(OCc3c(Cl)cccc3Cl)cc2)cc1.O=C(O)C(F)(F)F | 101 | 101 | 1.2 | Not Active | 39 | 0.54 | 31.7 | > 50 |  |  |  |  |  |  | Not Active | inhibition [21]: Active; inhibition [22]: Active; Ki (Genome polyprotein [4]): 1 µM; Drug uptake ([14]; BLD = below limit of detection): Bld; Ki (Genome polyprotein [7]): 0.46 µM
CCCCCC(=O)N[C@H](C(=O)NCc1ccc(CN)cc1)c1ccc(OCc2ccccc2)cc1.O=C(O)C(F)(F)F | 94.9 | 84.8 | 8.2 | Not Active |  | 4.9 |  | 4.8 |  |  |  |  |  |  | Not Active | inhibition [22]: Active; Ki (Genome polyprotein [7]): 3.8 µM
N=C(N)Nc1ccc(CNC(=O)[C@@H](NC(=O)c2ccc(Oc3ccccc3)cc2)c2ccc(OCc3ccccc3)cc2)cc1.O=C(O)C(F)(F)F | 99.5 | 101 | 6.2 | Not Active | 3 | 4 | 68.5 | > 12.5 | 0.3 | 80.5 | 1.2 | Non-Toxic | 22.4 | 154.5 | Not Active | EC50 (dengue virus type 2 [23]): 9.3 µM
N=C(N)NCCC[C@H](NC(=O)c1ccccc1)C(=O)N[C@@H](CCCCN)C(=O)N[C@@H](C(N)=O)c1ccc(OCc2ccccc2)cc1 |  | 86.7 | 3.9 | Not Active | 16 | 0.68 | 40.9 | > 100 |  | 52.3 |  | Non-Toxic |  |  | Not Active | EC50 (dengue virus type 2 [23]): 8.6 µM; Drug uptake ([14]; BLD = below limit of detection): Bld
CCCCCC(=O)N[C@H](C(=O)NCc1ccc(C(=N)N)cc1)c1ccc(OCc2ccccc2)cc1.O=C(O)C(F)(F)F | 20.6 | 39.4 |  | Not Active |  |  | 49.1 | > 50 |  |  |  |  |  |  |  | IC50 (Trypsin [2]): 45 µM; inhibition at 0.25 h, 50 µM (Trypsin [6]): > 50%
CCCCCCCC(=O)N[C@H](C(=O)NCc1ccc(NC(=N)N)cc1)c1ccc(OCc2ccccc2)cc1.O=C(O)C(F)(F)F | 100 | 104 | 11 | Not Active | 0.83 | 4.8 | 71.4 | > 50 | 0.3 |  | 1.5 | Non-Toxic | 17.3 | 164.5 | Not Active | EC50 (dengue virus type 2 [23]): 7.2 µM; inhibition at 10 µM (dengue virus type 2 [24]): 57.7%
N=C(N)Nc1ccc(CNC(=O)[C@@H](NC(=O)c2ccc(OC3CCCCC3)cc2)c2ccc(OCc3ccccc3)cc2)cc1.O=C(O)C(F)(F)F | 98.2 | 99.7 | 8.3 | Not Active | 2.2 | 5.9 | 70.4 | > 12.5 | 0.3 | 72.6 | 1.6 | Non-Toxic | 10.8 | 177.4 | Not Active | 
CCCCCC(=O)N[C@@H](C(=O)NCc1ccc(NC(=N)N)cc1)c1ccc(OCc2ccccc2)cc1.O=C(O)C(F)(F)F | 49.9 | 34.2 |  | Not Active | 9.9 |  | 54.9 | > 50 |  |  |  |  |  |  |  | IC50 (Trypsin [2]): 44 µM; inhibition at 0.25 h, 50 µM (Trypsin [6]): > 50%
